Tests used:
[1] = compound: C1CC(C1)(C(=O)[O-])C(=O)[O-].N.N.[Pt+2] [Carboplatin]; settings: max 10 µM
Outline: (§1)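 Viability was measured with CellTiter-Glo 2.0 luminescence after 72 hours of dosing at a final DMSO of typically 0.2%, and scaled between blank-well and DMSO-well means. Beforehand, cancer cell lines sat 24 hours at 37°C and 5% CO2 in 1536-well plates in 7.5 μl DMEM/F12 or RPMI with 10% FBS. A non-linear mixed effects model fitted two-parameter logistic curves to the dose responses. The single-agent IC50 comes from these fits.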

[2] = compound: C1CN(CCC1(C(=O)N[C@@H](CCO)C2=CC=C(C=C2)Cl)N)C3=NC=NC4=C3C=CN4 [AZD5363]; settings: max 10 µM
Outline: as §1

[3] = compound: C=CCn1c(=O)c2cnc(Nc3ccc(N4CCN(C)CC4)cc3)nc2n1-c1cccc(C(C)(C)O)n1 [AZD1775]; settings: max 3 µM
Outline: as §1

[4] = compound: CC(=O)Nc1cccc(-n2c(=O)n(C3CC3)c(=O)c3c(Nc4ccc(I)cc4F)n(C)c(=O)c(C)c32)c1 [Trametinib]; settings: max 1 µM
Outline: as §1

[5] = compound: CC(=O)O[C@H]1C(=O)[C@@]2(C)[C@H]([C@H](OC(=O)c3ccccc3)[C@]3(O)C[C@H](OC(=O)[C@H](O)[C@@H](NC(=O)c4ccccc4)c4ccccc4)C(C)=C1C3(C)C)[C@]1(OC(C)=O)CO[C@@H]1C[C@@H]2O [Paclitaxel]; settings: max 3 µM
Outline: as §1

[6] = compound: CC(=O)c1c(C)c2cnc(Nc3ccc(N4CCNCC4)cn3)nc2n(C2CCCC2)c1=O [Palbociclib]; settings: max 10 µM
Outline: as §1

[7] = compound: CC(C)n1c(=O)n(C)c2cnc3cc(F)c(-c4ccc(OCCCN5CCCCC5)nc4)cc3c21 [AZD1390]; settings: max 0.3 µM
Outline: as §1

[8] = compound: CC1(C)CCC(CN2CCN(c3ccc(C(=O)NS(=O)(=O)c4ccc(NCC5CCOCC5)c([N+](=O)[O-])c4)c(Oc4cnc5[nH]ccc5c4)c3)CC2)=C(c2ccc(Cl)cc2)C1 [Venetoclax]; settings: max 1 µM
Outline: as §1

[9] = compound: CC1=C(C(=CC=C1)Cl)NC(=O)C2=CN=C(S2)NC3=CC(=NC(=N3)C)N4CCN(CC4)CCO [Dasatinib]; settings: max 2 µM
Outline: as §1

[10] = compound: CC1=CN2[C@@H](C1)C=NC3=CC(=C(C=C3C2=O)OC)OCCCCCOC4=C(C=C5C(=C4)N=C[C@@H]6CC(=CN6C5=O)C)OC [SG3199]; settings: max 0.001 µM
Outline: as §1

[11] = compound: CCN(CCO)CCCOc1ccc2c(Nc3cc(CC(=O)Nc4cccc(F)c4)[nH]n3)ncnc2c1 [AZD2811]; settings: max 1 µM
Outline: as §1

[12] = compound: CCc1c2c(nc3ccc(O)cc13)-c1cc3c(c(=O)n1C2)COC(=O)[C@]3(O)CC [SN-38]; settings: max 0.3 µM
Outline: as §1

[13] = compound: CN(C)CCCOc1ccc(-c2ccc3ncc4c(c3c2)n(C2CCOCC2)c(=O)n4C)cn1 [AZD0156]; settings: max 3 µM
Outline: as §1

[14] = compound: CN(CC[C@H](CSC1=CC=CC=C1)NC2=C(C=C(C=C2)S(=O)(=O)NC(=O)C3=CC=C(C=C3)N4CCC(CC4)[C@H](C5=CC=CC=C5C6=CC=C(C=C6)Cl)O)S(=O)(=O)C(F)(F)F)CCO [AZD4320]; settings: max 1 µM
Outline: as §1

[15] = compound: COc1cc(Nc2ncc3c(n2)-c2ccc(Cl)cc2C(c2c(F)cccc2OC)=NC3)ccc1C(=O)O [Alisertib]; settings: max 10 µM
Outline: as §1

[16] = compound: COc1cc([C@@H]2c3cc4c(cc3[C@@H](O[C@@H]3O[C@@H]5CO[C@@H](C)O[C@H]5[C@H](O)[C@H]3O)[C@H]3COC(=O)[C@H]23)OCO4)cc(OC)c1O [Etoposide]; settings: max 10 µM
Outline: as §1

[17] = compound: COc1cc2ncnc(Nc3ccc(F)c(Cl)c3)c2cc1OCCCN1CCOCC1 [Gefitinib]; settings: max 10 µM
Outline: as §1

[18] = compound: COc1cccc(OCCCN)c1-c1cc(Nc2cnc(C#N)cn2)n[nH]1 [Prexasertib]; settings: max 1 µM
Outline: as §1

[19] = compound: COc1cccc2c1C(=O)c1c(O)c3c(c(O)c1C2=O)C[C@@](O)(C(=O)CO)C[C@@H]3O[C@H]1C[C@H](N)[C@H](O)[C@H](C)O1 [Doxorubicin]; settings: max 1 µM
Outline: as §1

[20] = compound: COc1nnc2ccc(N3CCC(c4ccc(OCCN5CCN(C)C(=O)[C@H]5C)cc4)CC3)nn12 [AZD5153]; settings: max 1 µM
Outline: as §1

[21] = compound: CS(=O)(=O)CCNCc1ccc(-c2ccc3ncnc(Nc4ccc(OCc5cccc(F)c5)c(Cl)c4)c3c2)o1 [Lapatinib]; settings: max 10 µM
Outline: as §1

[22] = compound: C[C@@H](Nc1cc(F)cc(F)c1)c1cc(C(=O)N(C)C)cc2c(=O)cc(N3CCOCC3)oc12 [AZD8186]; settings: max 10 µM
Outline: as §1

[23] = compound: C[C@@H](Oc1cc(-c2cnn(C3CCNCC3)c2)cnc1N)c1c(Cl)ccc(F)c1Cl [Crizotinib]; settings: max 10 µM
Outline: as §1

[24] = compound: C[C@@H](c1ccc2nccn2c1)n1nnc2ncc(-c3cnn(C)c3)nc21 [Savolitinib]; settings: max 1 µM
Outline: as §1

[25] = compound: C[C@@H]1COCCN1C2=NC(=NC(=C2)C3(CC3)[S@](=N)(=O)C)C4=C5C=CNC5=NC=C4 [AZD6738]; settings: max 10 µM
Outline: as §1

[26] = compound: Cc1c2c(nn1C)CSCc1cc(n(C)n1)CSc1cc(c3ccccc3c1)OCCCc1c(C(=O)O)n(C)c3c-2c(Cl)ccc13 [AZD5991]; settings: max 1 µM
Outline: as §1

[27] = compound: Cc1cc2ncnn2cc1Nc1ncc2c(n1)n(C1CCOCC1)c(=O)n2C [AZD7648]; settings: max 10 µM
Outline: as §1

[28] = compound: Cc1nc(-c2cn3c(n2)-c2ccc(-c4cnn(C(C)(C)C(N)=O)c4)cc2OCC3)n(C(C)C)n1 [Taselisib]; settings: max 10 µM
Outline: as §1

[29] = compound: Cn1cnc2c(F)c(Nc3ccc(Br)cc3Cl)c(C(=O)NOCCO)cc21 [Selumetinib]; settings: max 10 µM
Outline: as §1

[30] = compound: N#Cc1cnc(Nc2cc(NC[C@H]3CNCCO3)c(C(F)(F)F)cn2)cn1 [SRA737]; settings: max 10 µM
Outline: as §1

[31] = compound: NC1(c2ccc(-c3nc4ccn5c(=O)[nH]nc5c4cc3-c3ccccc3)cc2)CCC1 [MK-2206]; settings: max 10 µM
Outline: as §1

[32] = compound: Nc1ccn([C@@H]2O[C@H](CO)[C@@H](O)C2(F)F)c(=O)n1 [Gemcitabine]; settings: max 0.3 µM
Outline: as §1

[33] = compound: O=C(Nc1ccc2[nH]nc(-c3ccncc3)c2c1)[C@@H]1CCN(CC(=O)N2CCN(c3ccc(-c4ncccn4)cc3)CC2)C1; settings: max 5 µM
Outline: as §1

[34] = compound: O=C(c1cc(Cc2n[nH]c(=O)c3ccccc23)ccc1F)N1CCN(C(=O)C2CC2)CC1 [Olaparib]; settings: max 10 µM
Outline: as §1

[35] = compound: O=c1[nH]cc(F)c(=O)[nH]1 [5-Fluorouracil]; settings: max 20 µM
Outline: as §1

Cell Line	IC50, cell viability 72 h [1]	IC50, cell viability 72 h [2]	IC50, cell viability 72 h [3]	IC50, cell viability 72 h [4]	IC50, cell viability 72 h [5]	IC50, cell viability 72 h [6]	IC50, cell viability 72 h [7]	IC50, cell viability 72 h [8]	IC50, cell viability 72 h [9]	IC50, cell viability 72 h [10]	IC50, cell viability 72 h [11]	IC50, cell viability 72 h [12]	IC50, cell viability 72 h [13]	IC50, cell viability 72 h [14]	IC50, cell viability 72 h [15]	IC50, cell viability 72 h [16]	IC50, cell viability 72 h [17]	IC50, cell viability 72 h [18]	IC50, cell viability 72 h [19]	IC50, cell viability 72 h [20]	IC50, cell viability 72 h [21]	IC50, cell viability 72 h [22]	IC50, cell viability 72 h [23]	IC50, cell viability 72 h [24]	IC50, cell viability 72 h [25]	IC50, cell viability 72 h [26]	IC50, cell viability 72 h [27]	IC50, cell viability 72 h [28]	IC50, cell viability 72 h [29]	IC50, cell viability 72 h [30]	IC50, cell viability 72 h [31]	IC50, cell viability 72 h [32]	IC50, cell viability 72 h [33]	IC50, cell viability 72 h [34]	IC50, cell viability 72 h [35]
MDA-MB-157 (Breast Carcinoma)	> 10 µM	> 10 µM	0.973 µM	> 1 µM	0.132 µM	> 10 µM	> 0.3 µM	> 1 µM	> 2 µM	> 0.001 µM	> 1 µM	0.0626 µM	> 3 µM	> 1 µM	> 10 µM	8.86 µM	> 10 µM	0.01 µM	> 1 µM	0.398 µM	> 10 µM	> 10 µM	> 10 µM	> 1 µM	0.926 µM	0.457 µM	> 10 µM	> 10 µM	> 10 µM	1.23 µM	> 10 µM	0.213 µM	> 5 µM	> 10 µM	10.6 µM
DB (B-Cell Non-Hodgkin's Lymphoma)	> 10 µM	> 10 µM	0.526 µM	> 1 µM	0.00571 µM	7.68 µM	> 0.3 µM	0.119 µM	> 2 µM	> 0.001 µM	0.537 µM	0.00452 µM	> 3 µM	0.143 µM	3.88 µM	3.69 µM	> 10 µM	0.21 µM	0.251 µM	0.21 µM	> 10 µM	> 10 µM	7.97 µM	> 1 µM	> 10 µM	0.109 µM	> 10 µM	> 10 µM	> 10 µM	> 10 µM	> 10 µM	0.00896 µM	> 5 µM	> 10 µM	> 20 µM
MFH-ino (Other Solid Carcinomas)	> 10 µM	> 10 µM	> 3 µM	> 1 µM	1.27 µM	> 10 µM	> 0.3 µM	> 1 µM	> 2 µM	> 0.001 µM	> 1 µM	0.0398 µM	> 3 µM	> 1 µM	> 10 µM	> 10 µM	> 10 µM	> 1 µM	> 1 µM	> 1 µM	> 10 µM	> 10 µM	> 10 µM	> 1 µM	> 10 µM	> 1 µM	> 10 µM	> 10 µM	> 10 µM	> 10 µM	> 10 µM	0.0717 µM	3.67 µM	> 10 µM	> 20 µM
NCI-H2595 (Mesothelioma)	> 10 µM	> 10 µM	> 3 µM	> 1 µM	1.28 µM	> 10 µM	> 0.3 µM	> 1 µM	> 2 µM	> 0.001 µM	> 1 µM	> 0.3 µM	> 3 µM	> 1 µM	> 10 µM	> 10 µM	> 10 µM	> 1 µM	> 1 µM	> 1 µM	> 10 µM	> 10 µM	> 10 µM	> 1 µM	> 10 µM	> 1 µM	> 10 µM	> 10 µM	> 10 µM	> 10 µM	> 10 µM	> 0.3 µM	> 5 µM	> 10 µM	> 20 µM
U-266 (Plasma Cell Myeloma)	> 10 µM	> 10 µM	1.03 µM	0.225 µM	0.0102 µM	> 10 µM	> 0.3 µM	> 1 µM	> 2 µM	> 0.001 µM	> 1 µM	> 0.3 µM	> 3 µM	0.841 µM	9.54 µM	> 10 µM	> 10 µM	0.0506 µM	> 1 µM	> 1 µM	> 10 µM	> 10 µM	> 10 µM	> 1 µM	> 10 µM	0.219 µM	> 10 µM	> 10 µM	> 10 µM	> 10 µM	> 10 µM	0.131 µM	4.96 µM	> 10 µM	> 20 µM

— the supplement of paper PMC11061612
